# Assay results: patent US20080234361A1, “Pharmaceutical Compositions, Methods of Formulation Thereof and Methods of Use Thereof” (Rimonest Ltd., priority 2004, published 2008)
# “Also recorded” adds a separate entry of the source.
# Tested on: human PC-3 prostate cancer cells
# Assay: in vitro assay of PC-3 cell invasion across Matrigel artificial membrane
# Assay type: cell-based
# Conditions: for X ± σ (X = mean number of invading cells, σ = standard deviation): PC-3 cells, HGF 40 ng/ml induced invasion, fixed total concentration 4 micrograms/ml, 72 hr culture, c+ 33 ± 10.7, c− 3 ± 1.7; for inhibition of PC-3 invasion, result in words: total dose 4 micrograms/ml, Kruskal-Wallis test
# Excerpt: In order to determine a possible molecular mechanism of mixtures of conjugated fatty acids and polyphenols according to the present invention, an accepted in vitro assay of cancer cell invasion was employed (Jiang et al., (1995) Regulation of the expression of E-cadherin on human cancer cells by gamma-linolenic acid (GLA). Cancer Res. 55:5043-5048).
# Specifically, human PC-3 prostate cancer cells were used as an in vitro model to assess invasion across a Matrigel™ (Becton, Dickenson and Company, Franklin Lakes, N.J.) artificial membrane. Briefly, 6.5 mm diameter polycarbonate membranes (pore size 8 microns) […]. Following gel rehydration, 5×10^4 PC-3 human prostate cancer cells were added to each well. Hepatocyte growth factor/scatter factor (HGF) (Becton, Dickenson & Company, Franklin Lakes, N.J.) was used at 40 ng/ml to induce invasion. The upper chamber contained thested components (i.e. punicic acid, luteolin, caffeic acid or ellagic acid, or a combination of two, three or all four of the chemicals) at a fixed total concentration of 4 micrograms/ml.
# Pure compounds (ellagic acid ([…], luteolin [L], caffeic acid [C] and punicic acid […]) were purchased commercially (E, C and L from Sigma Aldrich, Rehovot, Israel; P from Larodan Chemicals; Malmo; Sweden) and assayed as potential invasion inhibitors. The total dose was 4 micrograms/ml in each of 18 trials. The Kruskal-Wallis test was used to measure significance.
compound,measurement,value
"O=C(O)/C=C/c1ccc(O)c(O)c1 [C, caffeic acid]","X ± σ (X = mean number of invading cells, σ = standard deviation)",16.8 ± 3.4
same,"inhibition of PC-3 invasion, result in words","inhibited invasion significantly; also recorded: much less than that of ellagic acid, punicic acid or luteolin"
"O=c1oc2c(O)c(O)cc3c(=O)oc4c(O)c(O)cc1c4c23 [E, ellagic acid]","X ± σ (X = mean number of invading cells, σ = standard deviation)",7.4 ± 2.3
same,"inhibition of PC-3 invasion, result in words",inhibited invasion significantly
"O=c1cc(-c2ccc(O)c(O)c2)oc2cc(O)cc(O)c12 [L, luteolin]","X ± σ (X = mean number of invading cells, σ = standard deviation)",9 ± 1.6
same,"inhibition of PC-3 invasion, result in words",inhibited invasion significantly
"CCCC\C=C/C=C/C=C\CCCCCCCC(=O)O [P, punicic acid]","X ± σ (X = mean number of invading cells, σ = standard deviation)",6.4 ± 1.1
same,"inhibition of PC-3 invasion, result in words",inhibited invasion significantly
